Measurements reported in patent publication US5625043A, “Anthracyclines with unusually high activity against cells resistant to doxorubicin and its analogs” (Priebe; Waldemar, priority 1995, dated 1997).
≈ marks a conversion by molar mass, not a printed value. Entries after “also recorded” stand apart in the source; their conditions may differ. Where two headings read alike, the source gives them in different places.

Legend:
KB 3-1 cells = assay: MTT cytotoxicity assay, DOX-sensitive KB 3-1 cells; type: cell-based; conditions: Homo sapiens
Protocol: An MTT assay was performed to determine the cytotoxicity of DOX, WP 546, and WP 549 to KB 3-1 (DOX-sensitive) and KB V1 (DOX-resistant) cells. The assay was performed as follows:
(§1) Doxorubicin was obtained from the Hospital Pharmacy (Adriamycin, Adria Laboratories, Columbus, Ohio). KB 3-1 human carcinoma and KB V1 were obtained from Dr. Michael M. Gottesman at the National Cancer Institute. KB V1 cells have the MDR phenotype and express glycoprotein P-170 in their membrane (Akiyama et al., Somat. Cell. Mol. Genet., 11:117, 1985; Shen et al., J. Biol. Chem., 261:7762, 1986.). KB 3-1 and KB V1 cells were grown in monolayers in Dulbecco's modified Eagle's medium containing 10% fetal bovine serum. For KB V1 cells, vinblastine was added to the culture medium (final concentration 0.5 μg/ml).
(§2) In vitro drug cytotoxicites against KB 3-1 and KB V1 cells were assessed by using the MTT reduction assay, as previously reported (Green et al., J. Immunol. Methods., 70:257, 1984). The MTT dye was obtained from Sigma Chemical Company, St. Louis, Mo. Cells were plated in 96-well microassay culture plates (10^4 cells/well) and grown for 24 h at 37° C. in a 5% CO2 incubator. Drugs were then added to the wells to achieve a final drug concentration ranging from 0.1 to 50 μg/ml (eight wells were used for each different concentration). The same volume of 0.9% NaCl solution in water with 1% DMSO was added to control wells. Wells containing culture medium alone without cells were used as blanks. The plates were incubated at 37° C. in a 5% CO2 incubator for 1 h (KB cells). When incubation was complete, 15 μl of stock solution of MTT dye in 0.9% NaCl solution in water was added to each well to achieve a final dye concentration of 0.5 mg/ml. […] The optical density of each well was then measured with a microplate spectrophotometer at a wavelength of 600 nm. The percent cell viability was calculated by the following equation: [formula]
(§3) The percent cell viability values obtained were plotted against the drug concentrations used, and the ID50 was calculated from the curve. […]

[1] = cited from earlier work
KB V1 cells = assay: MTT cytotoxicity assay, DOX-resistant (MDR) KB V1 cells; type: cell-based, human; conditions: for IC50: Homo sapiens; for RI (ID50 KB V1/ID50 KB 3-1): KB V1 versus KB 3-1; for cytotoxicity (in words): KB V1 (MDR, DOX-resistant)
Protocol: The assay was performed as follows:
as §1, with “KB V1 cells have the MDR phenotype and express glycoprotein P-170 in their membrane (Akiyama et al., Somat. Cell. Mol. Genet., 11:117, 1985; Shen et al., J. Biol. Chem., 261:7762, 1986.).” left out
The MTT dye was obtained from Sigma Chemical Company, St. Louis, Mo. Cells were plated in 96-well microassay culture plates (10^4 cells/well) and grown for 24 h at 37° C. in a 5% CO2 incubator. Drugs were then added to the wells to achieve a final drug concentration ranging from 0.1 to 50 μg/ml (eight wells were used for each different concentration). The same volume of 0.9% NaCl solution in water with 1% DMSO was added to control wells. Wells containing culture medium alone without cells were used as blanks. The plates were incubated at 37° C. in a 5% CO2 incubator for 1 h (KB cells). When incubation was complete, 15 μl of stock solution of MTT dye in 0.9% NaCl solution in water was added to each well to achieve a final dye concentration of 0.5 mg/ml. The plate was incubated at 37° C. in a 5% CO2 incubator for 4 h. […] Complete solubilization was achieved by placing the plate in a mechanical shaker for 30 minutes at room temperature. The optical density of each well was then measured with a microplate spectrophotometer at a wavelength of 600 nm. The percent cell viability was calculated by the following equation: [formula]
(§4) The percent cell viability values obtained were plotted against the drug concentrations used, and the ID50 was calculated from the curve. Experiments were repeated at least three time.

J774.2 cells = assay: Cytotoxicity against J774.2 cells; type: cell-based, murine; conditions: for IC50: Mus musculus
J7/40V cells = assay: Cytotoxicity against vinblastine-resistant J7/40V cells; type: cell-based, murine; conditions: for RI J7/40V: J7/40V versus J774.2; for IC50: Mus musculus; for cytotoxicity (in words): vinblastine-resistant
J7/A300 cells = assay: Cytotoxicity against AD 198-resistant J7/A300 cells; type: cell-based, murine; conditions: for RI J7/A300: J7/A300 versus J774.2; for IC50: Mus musculus; for cytotoxicity (in words): J7/A300, AD 198-resistant
[2] = versus same dose by bolus injections; cited from earlier work
P388 (S) cells = assay: MTT cytotoxicity assay, AD 198-sensitive P388 (S) cells; type: cell-based, murine; conditions: Mus musculus, ± S.E., read-out: ID50 (the source's name)
Protocol: as §2, with “mg/ml. The plate was incubated at 37° C. in a 5% CO2 incubator for 4 h.” for “mg/ml.”
as §3

[3] = system: tumor cells resistant to doxorubicin, AD 198, and vinblastine; assay: Cytotoxicity against drug-resistant tumor cells (general statement); type: cell-based
P388 (R) cells = assay: MTT cytotoxicity assay, AD 198-resistant P388 (R) cells; type: cell-based, murine; conditions: for IC50: Mus musculus, P388 (R), ± S.E., read-out: ID50 (the source's name); for RI: P388 (R) versus P388 (S); for cytotoxicity (in words): P388 AD 198-resistant
Protocol: In vitro drug cytotoxicites against KB 3-1 and KB V1 cells were assessed by using the MTT reduction assay, as previously reported (Green et al., J. Immunol. Methods., 70:257, 1984). The MTT dye was obtained from Sigma Chemical Company, St. Louis, Mo. Cells were plated in 96-well microassay culture plates (10^4 cells/well) and grown for 24 h at 37° C. in a 5% CO2 incubator. Drugs were then added to the wells to achieve a final drug concentration ranging from 0.1 to 50 μg/ml (eight wells were used for each different concentration). The same volume of 0.9% NaCl solution in water with 1% DMSO was added to control wells. Wells containing culture medium alone without cells were used as blanks. The plates were incubated at 37° C. in a 5% CO2 incubator for 1 h (KB cells). When incubation was complete, 15 μl of stock solution of MTT dye in 0.9% NaCl solution in water was added to each well to achieve a final dye concentration of 0.5 mg/ml. The plate was incubated at 37° C. in a 5% CO2 incubator for 4 h. Subsequently, 100 μl of medium was removed from each well from the upper ]K<id,KD layer, and 100 μl of DMSO was added to solubilize the MTT formazan. Complete solubilization was achieved by placing the plate in a mechanical shaker for 30 minutes at room temperature. The optical density of each well was then measured with a microplate spectrophotometer at a wavelength of 600 nm. The percent cell viability was calculated by the following equation: [formula]
as §4
An MTT assay to determine the cytotoxicity of WP 546 and WP 549 to AD 198-resistant {P 388 (R)} and AD 198-sensitive {P388 (S)} cells was performed in a manner similar to that described above.

[4] = KB 3-1 (S), MTT, 1 h drug incubation, read-out: ID50 (the source's name)
[5] = KB V1 (R), MTT, 1 h drug incubation, read-out: ID50 (the source's name)
[6] = J774.2, read-out: ID50 (the source's name)
[7] = J7/40V, read-out: ID50 (the source's name)
[8] = J7/A300, read-out: ID50 (the source's name)

## COc1cccc2c1C(=O)c1c(O)c3c(c(O)c1C2=O)C[C@@](O)(C(=O)CO)C[C@@H]3O[C@H]1C[C@H](N)[C@H](O)[C@H](C)O1 [Doxorubicin, doxorubicin]
KB 3-1 cells; KB 3-1, 1 h, read-out: ID50
  IC50: 1.1 µg/mL (≈ 2.02 µM)
[1]; in vivo
  adverse systemic effects: acute myelosuppression, cumulative cardiotoxicity, and gastrointestinal toxicity
[1]; related to total dose
  cardiomyopathy: unusual cardiomyopathy, the occurrence of which is related to the total dose of the drug; it is often irreversible
KB V1 cells; KB-V1, 1 h, read-out: ID50
  IC50: 64 µg/mL (≈ 118 µM)
KB V1 cells
  RI (ID50 KB V1/ID50 KB 3-1): 58.2
J774.2 cells; J774.2, read-out: ID50
  IC50: 0.024 µM
J7/40V cells
  RI J7/40V: 31
J7/40V cells; read-out: ID50
  IC50: 0.755 µM
J7/A300 cells
  RI J7/A300: 24
J7/A300 cells; read-out: ID50
  IC50: 0.586 µM
[2]
  efficacy of 96-hr continuous infusion: as effective as
  toxicity of 96-hr continuous infusion: much less toxic

## CC[C@]1(O)C[C@@H]2CN(CCc3c([nH]c4ccccc34)[C@@](C(=O)OC)(c3cc4c(cc3OC)N(C)[C@H]3[C@@](O)(C(=O)OC)[C@H](OC(C)=O)[C@]5(CC)C=CCN6CC[C@]43[C@@H]65)C2)C1 [vinblastine, reference compound]
J7/40V cells; J7/40V selected for resistance to vinblastine
  resistance of cell line to the selecting drug: 120 -fold

## CCCCC(=O)OCC(=O)[C@]1(O)Cc2c(O)c3c(c(O)c2[C@@H](O[C@H]2C[C@H](OCc4ccccc4)[C@H](O)[C@H](C)O2)C1)C(=O)c1c(OC)cccc1C3=O [WP 549, 7-O-(3-O-benzyl-2,6-dideoxy-α-L-lyxo-hexopyranosyl)-14-O-valeroyl-adriamycinone]
KB 3-1 cells; [4]
  IC50: 8.9 µg/mL (≈ 12.4 µM)
KB V1 cells; [5]
  IC50: 4.7 µg/mL (≈ 6.54 µM)
KB V1 cells
  cytotoxicity (in words): unexpectedly more cytotoxic against MDR cells than against parent cells; also recorded: ability to kill DOX-resistant and vinblastine resistant cells; also recorded: shown to kill KB V1 cells
  RI (ID50 KB V1/ID50 KB 3-1): 0.5
J774.2 cells; J774.2
  cytotoxicity (in words): shown to kill KB V1 cells and J774.2 cells
J774.2 cells; [6]
  IC50: 1.43 µM
P388 (S) cells
  IC50: 1.41 ± 0.23 µM
J7/40V cells
  RI J7/40V: 2.3
J7/40V cells; J7/40V
  cytotoxicity (in words): shown to have cytotoxic effects
J7/40V cells; [7]
  IC50: 3.15 µM
J7/A300 cells
  cytotoxicity (in words): demonstrated cytotoxicity
  RI J7/A300: 1.9
J7/A300 cells; [8]
  IC50: 2.77 µM
[3]
  cytotoxicity (in words): surprisingly broad cytotoxicity; also recorded: unexpected cytotoxic activity; also recorded: very high cytotoxicity
P388 (R) cells
  IC50: 0.73 ± 0.08 µM
  RI: 0.5
  cytotoxicity (in words): more cytotoxic towards cells selected for the resistance than that of a wild type; also recorded: demonstrated cytotoxicity

## COc1cccc2c1C(=O)c1c(O)c3c(c(O)c1C2=O)C[C@@](O)(C(=O)CO)C[C@@H]3O[C@H]1C[C@H](OCc2ccccc2)[C@H](O)[C@H](C)O1 [WP 546, 7-O-(3-O-benzyl-2,6-dideoxy-α-L-lyxo-hexopyranosyl)adriamycinone]
KB 3-1 cells; [4]
  IC50: 4.6 µg/mL (≈ 7.25 µM)
KB V1 cells; [5]
  IC50: 4.1 µg/mL (≈ 6.46 µM)
KB V1 cells
  cytotoxicity (in words): unexpectedly more cytotoxic against MDR cells than against parent cells; also recorded: ability to kill DOX-resistant and vinblastine resistant cells; also recorded: shown to kill KB V1 cells
  RI (ID50 KB V1/ID50 KB 3-1): 0.9
J774.2 cells; J774.2
  cytotoxicity (in words): shown to kill KB V1 cells and J774.2 cells
J774.2 cells; [6]
  IC50: 1.1 µM
P388 (S) cells
  IC50: 0.92 ± 0.36 µM
J7/40V cells
  RI J7/40V: 2.2
J7/40V cells; J7/40V
  cytotoxicity (in words): shown to have cytotoxic effects
J7/40V cells; [7]
  IC50: 2.35 µM
J7/A300 cells
  cytotoxicity (in words): demonstrated cytotoxicity
  RI J7/A300: 2.2
J7/A300 cells; [8]
  IC50: 2.43 µM
[3]
  cytotoxicity (in words): surprisingly broad cytotoxicity; also recorded: unexpected cytotoxic activity; also recorded: very high cytotoxicity
[3]; listed as 3'-O-benzyl-doxorubicin
  cytotoxicity (in words): surprisingly similar in DOX-sensitive and DOX-resistant cell lines
P388 (R) cells
  IC50: 0.69 ± 0.23 µM
  RI: 0.8
  cytotoxicity (in words): more cytotoxic towards cells selected for the resistance than that of a wild type; also recorded: demonstrated cytotoxicity

## COc1cccc2c1C(=O)c1c(O)c3c(c(O)c1C2=O)C[C@@](O)(C(C)=O)C[C@@H]3O[C@H]1C[C@H](N)[C@H](O)[C@H](C)O1 [daunorubicin]
[1]; in vivo
  cardiomyopathy: unusual cardiomyopathy, the occurrence of which is related to the total dose of the drug; it is often irreversible
